Data reported in patent US4156724A, “N-acylamino-alpha-arylacetamido cephalosporins and antibacterial compositions and methods containing them” (Sumitomo Chemical Company, Limited, priority 1974, dated 1979).
Values after ≈ are worked out from the molar mass of the structure shown.

What was measured:
Type in all cases: cell-based
[1] = test system: Staphylococcus aureus FS 289; assay: Minimum Inhibitory Concentration, Staphylococcus aureus FS 289; settings: FS289; Staphylococcus aureus FS 289, strain resistant to penicillin; read-out: Minimum Inhibitory Concentration
Description: (§1) anti-microbial activity tests were carried out on the compounds obtained in the Examples.
*Staphylococcus aureus FS 289: strain resistant to penicillin

[2] = test system: Staphylococcus aureus 209 P; assay: Minimum Inhibitory Concentration, Staphylococcus aureus 209 P; settings: Staphylococcus aureus 209 P; read-out: Minimum Inhibitory Concentration
Description: as §1

Proteus vulgaris HX 19 = assay: Minimum Inhibitory Concentration, Proteus vulgaris HX 19; settings: HX19; Proteus vulgaris HX 19; read-out: Minimum Inhibitory Concentration
Description: as §1

Serratia No. 72 = assay: Minimum Inhibitory Concentration, Serratia No. 72
Description: as §1

[3] = test system: Pseudomonas aeruginosa 104; assay: Minimum Inhibitory Concentration, Pseudomonas aeruginosa 104; settings: Pseudomonas aeruginosa 104; read-out: Minimum Inhibitory Concentration
Description: as §1

Escherichia coli NIHJ = assay: Minimum Inhibitory Concentration, Escherichia coli NIHJ; settings: Escherichia coli NIHJ; read-out: Minimum Inhibitory Concentration
Description: as §1

[4] = test system: Klebsiella pneumoniae 602; assay: Minimum Inhibitory Concentration, Klebsiella pneumoniae 602; settings: Klebsiella pneumoniae, 602, Klebsiella pneumoniae 602; read-out: Minimum Inhibitory Concentration
Description: as §1

[5] = test system: Enterobacter aerogeneus No. 75; assay: Minimum Inhibitory Concentration, Enterobacter aerogeneus No. 75; settings: Enterobacter aerogeneus No. 75; read-out: Minimum Inhibitory Concentration
Description: as §1

Row | Structure (SMILES) | MIC [1] [µg/mL] | MIC [2] [µg/mL] | MIC (Proteus vulgaris HX 19) [µg/mL] | MIC (Serratia No. 72) [µg/mL] | MIC [3] [µg/mL] | MIC (Escherichia coli NIHJ) [µg/mL] | MIC [4] [µg/mL] | MIC [5] [µg/mL]
1 | O=C(O)C1=C(CSc2nncs2)CSC2C(NC(=O)C(NC(=O)c3cnc4cccnc4c3O)c3ccc(O)c(O)c3)C(=O)N12 (stereo not shown) [Example 171] | 12.5 (≈ 18.7 µM) | 1.56 (≈ 2.34 µM) | 0.2 (≈ 0.3 µM) | 25 (≈ 37.4 µM) | 3.13 (≈ 4.69 µM) | 3.13 (≈ 4.69 µM) | 1.56 (≈ 2.34 µM) | 3.13 (≈ 4.69 µM)
2 | COc1cnc2c(O)c(C(=O)NC(C(=O)NC3C(=O)N4C(C(=O)O)=C(CSc5nnnn5C)CSC34)c3ccc(O)cc3)cnc2n1 (stereo not shown) [Example 172] | 12.5 (≈ 18.4 µM) | 0.78 (≈ 1.15 µM) | 0.78 (≈ 1.15 µM) | 25 (≈ 36.7 µM) | 6.25 (≈ 9.18 µM) | 3.13 (≈ 4.6 µM) | 3.13 (≈ 4.6 µM) | 6.25 (≈ 9.18 µM)
3 | CSc1ncc2c(O)c(C(=O)NC(C(=O)NC3C(=O)N4C(C(=O)O)=C(CSc5nnnn5C)CSC34)c3ccc(O)cc3)nnc2n1 (stereo not shown) [Example 173] | 12.5 (≈ 17.9 µM) | 0.78 (≈ 1.12 µM) | 0.78 (≈ 1.12 µM) | 50 (≈ 71.7 µM) | 6.25 (≈ 8.96 µM) | 12.5 (≈ 17.9 µM) | 6.25 (≈ 8.96 µM) | 25 (≈ 35.8 µM)
4 | Cn1nnnc1SCC1=C(C(=O)O)N2C(=O)C(NC(=O)C(NC(=O)c3cnc4ccc(O)nc4c3O)c3ccc(O)cc3)C2SC1 (stereo not shown) [Example 174] | 12.5 (≈ 18.8 µM) | 0.78 (≈ 1.17 µM) | 0.39 (≈ 0.586 µM) | 12.5 (≈ 18.8 µM) | 3.13 (≈ 4.7 µM) | 3.13 (≈ 4.7 µM) | 1.56 (≈ 2.34 µM) | 3.13 (≈ 4.7 µM)
5 | Cn1nnnc1SCC1=C(C(=O)O)N2C(=O)C(NC(=O)C(NC(=O)c3cnc4c(O)ccnc4c3O)c3ccc(O)cc3)C2SC1 (stereo not shown) [Example 175] | 12.5 (≈ 18.8 µM) | 0.78 (≈ 1.17 µM) | 0.39 (≈ 0.586 µM) | 12.5 (≈ 18.8 µM) | 3.13 (≈ 4.7 µM) | 3.13 (≈ 4.7 µM) | 3.13 (≈ 4.7 µM) | 6.25 (≈ 9.39 µM)
6 | O=C(O)C1=C(CSc2nnc(CO)s2)CSC2C(NC(=O)C(NC(=O)c3cnccc3O)c3ccc(O)cc3)C(=O)N12 (stereo not shown) [Example 176] | 6.25 (≈ 9.91 µM) | 0.39 (≈ 0.618 µM) | 0.2 (≈ 0.317 µM) | 50 (≈ 79.3 µM) | 12.5 (≈ 19.8 µM) | 6.25 (≈ 9.91 µM) | 6.25 (≈ 9.91 µM) | 12.5 (≈ 19.8 µM)
7 | O=C(O)C1=C(CSc2ccc(O)nn2)CSC2C(NC(=O)C(NC(=O)c3cnccc3O)c3ccc(O)cc3)C(=O)N12 (stereo not shown) [Example 177] | 6.25 (≈ 10.2 µM) | 0.39 (≈ 0.639 µM) | 0.2 (≈ 0.328 µM) | 100 (≈ 164 µM) | 12.5 (≈ 20.5 µM) | 6.25 (≈ 10.2 µM) | 6.25 (≈ 10.2 µM) | 12.5 (≈ 20.5 µM)
8 | O=C(O)C1=C(CSc2nnc(CO)s2)CSC2C(NC(=O)C(NC(=O)c3cnc4cccnc4c3O)c3ccc(O)c(O)c3)C(=O)N12 (stereo not shown) [Example 178] | 6.25 (≈ 8.96 µM) | 0.78 (≈ 1.12 µM) | 0.2 (≈ 0.287 µM) | 12.5 (≈ 17.9 µM) | 3.13 (≈ 4.49 µM) | 3.13 (≈ 4.49 µM) | 1.56 (≈ 2.24 µM) | 6.25 (≈ 8.96 µM)

Now from value to compound:

Row | MIC [1] [µg/mL] | MIC [2] [µg/mL] | MIC (Proteus vulgaris HX 19) [µg/mL] | MIC (Serratia No. 72) [µg/mL] | MIC [3] [µg/mL] | MIC (Escherichia coli NIHJ) [µg/mL] | MIC [4] [µg/mL] | MIC [5] [µg/mL] | Structure (SMILES)
9 | 6.25 (≈ 9.87 µM) | 0.39 (≈ 0.616 µM) | 0.39 (≈ 0.616 µM) | 50 (≈ 79 µM) | 12.5 (≈ 19.7 µM) | 6.25 (≈ 9.87 µM) | 6.25 (≈ 9.87 µM) | 12.5 (≈ 19.7 µM) | Cn1nnnc1SCC1=C(C(=O)O)N2C(=O)C(NC(=O)C(NC(=O)c3cnccc3O)c3ccc(O)c(Cl)c3)C2SC1 (stereo not shown) [Example 179]
10 | 6.25 (≈ 9.62 µM) | 0.78 (≈ 1.2 µM) | 0.1 (≈ 0.154 µM) | 12.5 (≈ 19.2 µM) | 3.13 (≈ 4.82 µM) | 3.13 (≈ 4.82 µM) | 1.56 (≈ 2.4 µM) | 3.13 (≈ 4.82 µM) | Cn1nnnc1SCC1=C(C(=O)O)N2C(=O)C(NC(=O)C(NC(=O)c3cnc4cccnc4c3O)c3cccc(O)c3)C2SC1 (stereo not shown) [Example 180]
11 | 6.25 (≈ 9.17 µM) | 0.78 (≈ 1.14 µM) | 0.2 (≈ 0.293 µM) | 12.5 (≈ 18.3 µM) | 3.13 (≈ 4.59 µM) | 1.56 (≈ 2.29 µM) | 1.56 (≈ 2.29 µM) | 6.25 (≈ 9.17 µM) | O=C(O)C1=C(CSc2nnc(CO)s2)CSC2C(NC(=O)C(NC(=O)c3cnc4cccnc4c3O)c3cccc(O)c3)C(=O)N12 (stereo not shown) [Example 181]
12 | 3.13 (≈ 5.6 µM) | 0.78 (≈ 1.4 µM) | 0.78 (≈ 1.4 µM) | > 200 | 12.5 (≈ 22.4 µM) | 12.5 (≈ 22.4 µM) | 25 (≈ 44.8 µM) | 25 (≈ 44.8 µM) | CC(=O)OCC1=C(C(=O)O)N2C(=O)C(NC(=O)C(NC(=O)c3cnccc3O)c3ccc(O)c(O)c3)C2SC1 (stereo not shown) [Example 182]
13 | 6.25 (≈ 9.91 µM) | 0.78 (≈ 1.24 µM) | 0.39 (≈ 0.618 µM) | 50 (≈ 79.3 µM) | 6.25 (≈ 9.91 µM) | 6.25 (≈ 9.91 µM) | 12.5 (≈ 19.8 µM) | 12.5 (≈ 19.8 µM) | Cc1nnc(SCC2=C(C(=O)O)N3C(=O)C(NC(=O)C(NC(=O)c4cnccc4O)c4ccc(O)c(O)c4)C3SC2)s1 (stereo not shown) [Example 183]
14 | 6.25 (≈ 9.66 µM) | 0.78 (≈ 1.21 µM) | 0.78 (≈ 1.21 µM) | 50 (≈ 77.3 µM) | 6.25 (≈ 9.66 µM) | 6.25 (≈ 9.66 µM) | 12.5 (≈ 19.3 µM) | 12.5 (≈ 19.3 µM) | O=C(O)C1=C(CSc2nnc(CO)s2)CSC2C(NC(=O)C(NC(=O)c3cnccc3O)c3ccc(O)c(O)c3)C(=O)N12 (stereo not shown) [Example 184]
15 | 6.25 (≈ 10.2 µM) | 0.78 (≈ 1.27 µM) | 0.39 (≈ 0.635 µM) | 50 (≈ 81.4 µM) | 6.25 (≈ 10.2 µM) | 6.25 (≈ 10.2 µM) | 6.25 (≈ 10.2 µM) | 12.5 (≈ 20.3 µM) | Cn1nnnc1SCC1=C(C(=O)O)N2C(=O)C(NC(=O)C(NC(=O)c3cnccc3O)c3ccc(O)c(O)c3)C2SC1 (stereo not shown) [Example 185]
16 | 6.25 (≈ 10.4 µM) | 0.78 (≈ 1.3 µM) | 0.78 (≈ 1.3 µM) | 50 (≈ 83.4 µM) | 12.5 (≈ 20.8 µM) | 6.25 (≈ 10.4 µM) | 12.5 (≈ 20.8 µM) | 12.5 (≈ 20.8 µM) | O=C(O)C1=C(CSc2cnn[nH]2)CSC2C(NC(=O)C(NC(=O)c3cnccc3O)c3ccc(O)c(O)c3)C(=O)N12 (stereo not shown) [Example 186]
17 | 6.25 (≈ 10.1 µM) | 0.78 (≈ 1.26 µM) | 0.39 (≈ 0.632 µM) | 50 (≈ 81.1 µM) | 6.25 (≈ 10.1 µM) | 6.25 (≈ 10.1 µM) | 12.5 (≈ 20.3 µM) | 12.5 (≈ 20.3 µM) | Cn1nnnc1SCC1=C(C(=O)O)N2C(=O)C(NC(=O)C(NC(=O)c3cnccc3O)c3ccc(O)c(F)c3)C2SC1 (stereo not shown) [Example 187]
